Experimental data as given in patent US20130210846A1, “USE OF NOVEL PAN-CDK INHIBITORS FOR TREATING TUMORS” (BAYER INTELLECTUAL PROPERTY GMBH, priority 2010, published 2013).

Experiments:
DU145 = experiment: Proliferation assay DU145; format: cell-based, human; details: DU145, prostate carcinoma; 4 days, crystal violet
Experimental: (§1) Cultivated human tumor cells (originally obtained from ATCC, HeLa-MaTu and HeLa-MaTu-ADR, originally obtained from Epo GmbH, Berlin, Germany) were plated at a density of 1000 to 5000 cells/measuring point, depending on the growth rate of the cell line, in a 96-well multititer plate in 200 μl of growth medium (DMEM/HAMS F12, 2 mM L-glutamine, 10% fetal calf serum). After 24 hours the cells of one plate (zero-point plate) were stained with crystal violet (see below), whereas the medium of the other plates was replaced with fresh culture medium (200 μl), to which the test substances had been added at various concentrations (0 μM, and in the range 0.01-30 μM; the final concentration of the solvent dimethyl sulfoxide was 0.5%). The cells were incubated for 4 days in the presence of the test substances. Cellular proliferation was determined by staining the cells with crystal violet: the cells were fixed by adding 20 μl/measuring point of an 11% glutaraldehyde solution for 15 min at room temperature. After washing the fixed cells with water three times, the plates were dried at room temperature. The cells were stained by adding 100 μl/measuring point of a 0.1% crystal violet solution (pH adjusted to pH3 by adding acetic acid). After washing the stained cells with water three times, the plates were dried at room temperature. The dye was dissolved by adding 100 μl/measuring point of a 10% acetic acid solution. The extinction was determined photometrically at a wavelength of 595 nm. The percentage change in cell growth was calculated by standardization of the measured values to the extinction values of the zero-point plate (=0%) and the extinction of the untreated (0 μM) cells (=100%). The measured data were standardized to 0% inhibition (cell proliferation without inhibitor) and 100% inhibition (zero-point plate). The IC50 values were determined by means of a 4-parameter fit using the company's own software.
(§2) The substances were examined in the following cell lines which, in an exemplary manner, represent the stated indications: […]

NCI-H460 = experiment: Proliferation assay NCI-H460; format: cell-based, human; details: NCI-H460, non-small-cell bronchial carcinoma; 4 days, crystal violet
Experimental: as §1, §2

SW480 = experiment: Proliferation assay SW480; format: cell-based; details: Homo sapiens, 96 h; SW480, colon/rectum carcinoma; 4 days, crystal violet
Experimental: as §1, §2

Caki2 = experiment: Proliferation assay Caki2; format: cell-based; details: Homo sapiens, CAKI-2, 96 h; Caki2, kidney carcinoma; 4 days, crystal violet
Experimental: as §1, §2

A549 = experiment: Proliferation assay A549; format: cell-based; details: Homo sapiens, 96 h; A549, non-small-cell bronchial carcinoma; 4 days, crystal violet
Experimental: as §1, §2

OVCAR-8 = experiment: Proliferation assay OVCAR-8; format: cell-based; details: Homo sapiens, 96 h; OVCAR-8, ovarial carcinoma; 4 days, crystal violet
Experimental: as §1, with “After washing the fixed cells with water three times, the plates were dried at room temperature. The cells were stained by adding 100 μl/measuring point of a 0.1% crystal violet solution (pH adjusted to pH3 by adding acetic acid). After washing the stained cells with water three times, the plates were dried at room temperature. The dye was dissolved by adding 100 μl/measuring point of a 10% acetic acid solution.” left out, “The measured data were standardized to 0% inhibition (cell proliferation without inhibitor) and 100% inhibition (zero-point plate).” left out, “software. […]” for “software.”

NCI-ADR-Res = experiment: Proliferation assay NCI-ADR-Res; format: cell-based; details: Homo sapiens, 96 h, ovarial carcinoma, 4 days, crystal violet
Experimental: as §1, §2

MOLM-13 = experiment: Proliferation assay MOLM-13; format: cell-based; details: Homo sapiens, 96 h; MOLM-13, leukemia; 4 days, crystal violet
Experimental: as §1, with “After washing the fixed cells with water three times, the plates were dried at room temperature. The cells were stained by adding 100 μl/measuring point of a 0.1% crystal violet solution (pH adjusted to pH3 by adding acetic acid). After washing the stained cells with water three times, the plates were dried at room temperature. The dye was dissolved by adding 100 μl/measuring point of a 10% acetic acid solution.” left out, “The measured data were standardized to 0% inhibition (cell proliferation without inhibitor) and 100% inhibition (zero-point plate).” left out, “software. […]” for “software.”

SK-BR-3 = experiment: Proliferation assay SK-BR-3; format: cell-based; details: Homo sapiens, 96 h; SK-BR-3, estrogen receptor-negative mamma carcinoma; 4 days, crystal violet
Experimental: as §1, §2

NCI-H69 = experiment: Proliferation assay NCI-H69; format: cell-based; details: Homo sapiens, 96 h; NCI-H69, small-cell bronchial carcinoma; 4 days, crystal violet
Experimental: as §1, with “After washing the fixed cells with water three times, the plates were dried at room temperature. The cells were stained by adding 100 μl/measuring point of a 0.1% crystal violet solution (pH adjusted to pH3 by adding acetic acid). After washing the stained cells with water three times, the plates were dried at room temperature. The dye was dissolved by adding 100 μl/measuring point of a 10% acetic acid solution.” left out, “The measured data were standardized to 0% inhibition (cell proliferation without inhibitor) and 100% inhibition (zero-point plate).” left out, “software. […]” for “software.”

MIA PaCa-2 = experiment: Proliferation assay MIA PaCa-2; format: cell-based; details: Homo sapiens, 96 h; MIA PaCa-2, pancreas carcinoma; 4 days, crystal violet
Experimental: as §1, §2

Caco-2 = experiment: Proliferation assay Caco-2; format: cell-based, human; details: Caco-2, colon/rectum carcinoma; 4 days, crystal violet
Experimental: as §1, §2

HeLa = experiment: Proliferation assay HeLa; format: cell-based; details: Homo sapiens, 96 h, cervix carcinoma, 4 days, crystal violet
Experimental: as §1, §2

786-O = experiment: Proliferation assay 786-O; format: cell-based; details: Homo sapiens, 786-0, 96 h, kidney carcinoma, 4 days, crystal violet
Experimental: as §1, §2

A431 = experiment: Proliferation assay A431; format: cell-based; details: Homo sapiens, A-431, 96 h; A431, skin: epidermis; 4 days, crystal violet
Experimental: as §1, §2

HeLa-MaTu = experiment: Proliferation assay HeLa-MaTu; format: cell-based, human; details: cervix carcinoma, 4 days, crystal violet
Experimental: as §1, §2

[1] = molecular target: T1, VEGF receptor tyrosine kinase-2 (VEGF-R2) (Homo sapiens, UniProt P35968); experiment: VEGF receptor-2 kinase assay (Assay 3); format: biochemical; details: 8 μM ATP, poly-(Glu4Tyr), 10 min 22° C.; read-out: VEGF-R2 (Assay 3) Concentration for half-maximal inhibition of the enzyme activity, IC50
T1 construct: GST; made in house; host or cells: baculovirus-infected insect cells (Sf9)
T1 sequence (P35968 20-1356, species assumed): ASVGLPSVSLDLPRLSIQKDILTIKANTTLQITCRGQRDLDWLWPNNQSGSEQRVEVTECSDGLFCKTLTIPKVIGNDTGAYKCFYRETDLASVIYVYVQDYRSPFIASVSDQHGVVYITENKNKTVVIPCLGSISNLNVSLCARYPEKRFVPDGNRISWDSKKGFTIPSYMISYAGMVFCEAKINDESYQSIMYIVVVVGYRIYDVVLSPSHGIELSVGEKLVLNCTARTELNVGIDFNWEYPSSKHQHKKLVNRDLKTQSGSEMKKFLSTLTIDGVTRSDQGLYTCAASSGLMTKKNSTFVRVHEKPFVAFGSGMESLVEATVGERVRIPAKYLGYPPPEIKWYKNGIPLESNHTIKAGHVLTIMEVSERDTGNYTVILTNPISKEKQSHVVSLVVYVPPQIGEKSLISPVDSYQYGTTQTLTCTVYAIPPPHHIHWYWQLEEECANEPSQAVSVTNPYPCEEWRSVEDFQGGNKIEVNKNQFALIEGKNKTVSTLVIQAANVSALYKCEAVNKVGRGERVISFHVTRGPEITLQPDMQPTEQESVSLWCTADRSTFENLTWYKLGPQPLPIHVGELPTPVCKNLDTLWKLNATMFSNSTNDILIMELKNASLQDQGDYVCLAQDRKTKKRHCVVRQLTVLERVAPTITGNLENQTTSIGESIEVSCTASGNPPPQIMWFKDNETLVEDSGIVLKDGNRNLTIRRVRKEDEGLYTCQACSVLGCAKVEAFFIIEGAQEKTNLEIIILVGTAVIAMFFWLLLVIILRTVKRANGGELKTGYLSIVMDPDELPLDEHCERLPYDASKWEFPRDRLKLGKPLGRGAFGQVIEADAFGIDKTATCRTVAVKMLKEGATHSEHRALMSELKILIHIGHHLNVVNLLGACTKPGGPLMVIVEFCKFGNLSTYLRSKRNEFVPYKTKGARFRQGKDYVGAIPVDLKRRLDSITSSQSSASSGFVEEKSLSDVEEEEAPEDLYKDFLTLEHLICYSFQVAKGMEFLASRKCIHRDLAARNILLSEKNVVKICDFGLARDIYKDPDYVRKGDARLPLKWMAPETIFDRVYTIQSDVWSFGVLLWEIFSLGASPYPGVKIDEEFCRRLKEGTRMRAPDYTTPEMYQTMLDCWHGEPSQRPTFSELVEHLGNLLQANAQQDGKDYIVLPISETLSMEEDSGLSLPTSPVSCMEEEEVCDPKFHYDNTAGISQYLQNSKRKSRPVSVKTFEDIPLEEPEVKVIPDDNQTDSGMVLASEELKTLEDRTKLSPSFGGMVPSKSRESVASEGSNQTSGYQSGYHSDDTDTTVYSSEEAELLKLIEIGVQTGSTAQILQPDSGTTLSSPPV
Experimental: Recombinant VEGF receptor tyrosine kinase-2 was purified as GST fusion protein from baculovirus-infected insect cells (Sf9). Poly-(Glu4Tyr), used as kinase substrate, was purchased from Sigma.
VEGF receptor tyrosine kinase (90 ng/measuring point) was incubated for 10 min at 22° C. in the presence of various concentrations of test substances (0 μM, and within the range 0.001-30 μM) in 30 μl assay buffer [40 mM Tris/HCl pH5.5, 10 mM MgCl2, 1 mM MnCl2, 3 μM Na ortho-vanadate, 1.0 mM dithiothreitol, 8 μM adenosine triphosphate (ATP), 0.96 μg/measuring point poly-(Glu4Tyr), 0.2 μCi/measuring point ^33P-gamma ATP, 1.4% dimethyl sulfoxide]. The reaction was stopped by adding EDTA solution (250 mM, pH 8.0, 15 μl/measuring point).
From each reaction mixture, 15 μl was applied to P30 filter strips (from Wallac), and unincorporated ^33P-ATP was removed by washing the filter strips three times, for 10 min each time, in 0.5% phosphoric acid. After drying the filter strips for 1 hour at 70° C., the filter strips were covered with scintillator strips (MeltiLex™ A, from Wallac) and stoved for 1 hour at 90° C. The amount of incorporated ^33P (substrate phosphorylation) was determined by scintillation measurement in a gamma-radiation measuring instrument (Wallac). The measured data were standardized to 0% inhibition (enzyme reaction without inhibitor) and 100% inhibition (all assay components except enzyme). The IC50 values were determined by means of a 4-parameter fit using the company's own software.

MCF7 = experiment: Proliferation assay MCF7; format: cell-based, human; details: MCF7, estrogen receptor-positive mamma carcinoma; 4 days, crystal violet
Experimental: as §1, §2

PC3 = experiment: Proliferation assay PC3; format: cell-based; details: Homo sapiens, PC-3, 96 h; PC3, prostate carcinoma; 4 days, crystal violet
Experimental: as §1, §2

HT29 = experiment: Proliferation assay HT29; format: cell-based; details: Homo sapiens, HT-29, 96 h; HT29, colon/rectum carcinoma; 4 days, crystal violet
Experimental: as §1, §2

MDA-MB 231 = experiment: Proliferation assay MDA-MB 231; format: cell-based; details: Homo sapiens, 96 h; MDA-MB 231, estrogen receptor-negative mamma carcinoma; 4 days, crystal violet
Experimental: as §1, with “After washing the fixed cells with water three times, the plates were dried at room temperature. The cells were stained by adding 100 μl/measuring point of a 0.1% crystal violet solution (pH adjusted to pH3 by adding acetic acid). After washing the stained cells with water three times, the plates were dried at room temperature. The dye was dissolved by adding 100 μl/measuring point of a 10% acetic acid solution.” left out, “The measured data were standardized to 0% inhibition (cell proliferation without inhibitor) and 100% inhibition (zero-point plate).” left out, “software. […]” for “software.”

HeLa-MaTu-ADR = experiment: Proliferation assay HeLa-MaTu-ADR; format: cell-based, human; details: cervix carcinoma, 4 days, crystal violet
Experimental: as §1, §2

MDA-MB 453 = experiment: Proliferation assay MDA-MB 453; format: cell-based; details: Homo sapiens, 96 h; MDA-MB 453, estrogen receptor-negative mamma carcinoma; 4 days, crystal violet
Experimental: as §1, §2

HCT116 = experiment: Proliferation assay HCT116; format: cell-based; details: Homo sapiens, HCT-116, 96 h; HCT116, colon/rectum carcinoma; 4 days, crystal violet
Experimental: as §1, §2

A375 = experiment: Proliferation assay A375; format: cell-based; details: Homo sapiens, A-375, 96 h; A375, skin: melanoma; 4 days, crystal violet
Experimental: as §1, with “After washing the fixed cells with water three times, the plates were dried at room temperature. The cells were stained by adding 100 μl/measuring point of a 0.1% crystal violet solution (pH adjusted to pH3 by adding acetic acid). After washing the stained cells with water three times, the plates were dried at room temperature. The dye was dissolved by adding 100 μl/measuring point of a 10% acetic acid solution.” left out, “The measured data were standardized to 0% inhibition (cell proliferation without inhibitor) and 100% inhibition (zero-point plate).” left out, “software. […]” for “software.”

H1975 = experiment: Proliferation assay H1975; format: cell-based; details: Homo sapiens, NCI-H1975, 96 h; H1975, non-small-cell bronchial carcinoma; 4 days, crystal violet
Experimental: as §1, §2

C[C@@H](O)[C@@H](C)Oc1nc(Nc2ccc(S(=N)(=O)C3CC3)cc2)ncc1C(F)(F)F (mixture of isomers) [Example 1-SI-2, (RS)—S-Cyclopropyl-S-(4-{[4-{[(1R,2R)-2-hydroxy-1-methylpropyl]oxy}-5-(trifluoromethyl)-pyrimidin-2-yl]amino}phenyl)sulfoximide]
IC50 (DU145): 8 nM
IC50 (NCI-H460): 12 nM
IC50 (SW480): 15 nM
IC50 (Caki2): 26 nM
IC50 (A549): 20 nM
IC50 (OVCAR-8): 12 nM
IC50 (NCI-ADR-Res): 33 nM
IC50 (MOLM-13): 14 nM
IC50 (SK-BR-3): 13 nM
IC50 (NCI-H69): 37 nM
IC50 (MIA PaCa-2): 21 nM
IC50 (Caco-2): 16 nM
IC50 (HeLa): 12 nM
IC50 (786-O): 20 nM
IC50 (A431): 14 nM
IC50 (HeLa-MaTu): 11 nM
IC50 [1]: 163 nM
IC50 (MCF7): 15 nM
IC50 (PC3): 25 nM
IC50 (HT29): 29 nM
IC50 (MDA-MB 231): 18 nM
IC50 (HeLa-MaTu-ADR): 8 nM
IC50 (MDA-MB 453): 15 nM
IC50 (HCT116): 18 nM
IC50 (A375): 14 nM
IC50 (H1975): 11 nM
